# Results as given in ChEMBL document CHEMBL3091419, “Cytidine derivatives as IspF inhibitors of Burkolderia pseudomallei” (Bioorg Med Chem Lett, 2013).
# pKd: −log10 of the molar value. Activity calls are given as the source filed them. No cut-off for these calls is given here.
# Test system: Plasmodium falciparum
# Assay: Antimicrobial activity against Plasmodium falciparum W2 at 40 uM
# Assay type: functional, organism-based
row,Structure (SMILES),Activity
1,Nc1ccn([C@@H]2O[C@H](CNC(=O)c3ccnc4nc[nH]c34)[C@@H](O)[C@H]2O)c(=O)n1,inactive
2,Nc1ccn([C@@H]2O[C@H](CNC(=O)c3ccncc3)[C@@H](O)[C@H]2O)c(=O)n1,inactive
3,Nc1ccn([C@@H]2O[C@H](CNC(=O)c3cscn3)[C@@H](O)[C@H]2O)c(=O)n1,inactive
4,Nc1ccn([C@@H]2O[C@H](CNC(=O)c3cn4ccsc4n3)[C@@H](O)[C@H]2O)c(=O)n1,inactive
5,Nc1ccn([C@@H]2O[C@H](CNC(=O)Cc3cn4ccsc4n3)[C@@H](O)[C@H]2O)c(=O)n1,inactive

# Test system: Burkholderia thailandensis
# Assay: Antimicrobial activity against Burkholderia thailandensis at 1 mM
# Assay type: functional
row,Structure (SMILES),Activity
1,Nc1ccn([C@@H]2O[C@H](CNC(=O)c3ccnc4nc[nH]c34)[C@@H](O)[C@H]2O)c(=O)n1,inactive
2,Nc1ccn([C@@H]2O[C@H](CNC(=O)c3ccncc3)[C@@H](O)[C@H]2O)c(=O)n1,inactive
3,Nc1ccn([C@@H]2O[C@H](CNC(=O)c3cscn3)[C@@H](O)[C@H]2O)c(=O)n1,inactive
4,Nc1ccn([C@@H]2O[C@H](CNC(=O)c3cn4ccsc4n3)[C@@H](O)[C@H]2O)c(=O)n1,inactive
5,Nc1ccn([C@@H]2O[C@H](CNC(=O)Cc3cn4ccsc4n3)[C@@H](O)[C@H]2O)c(=O)n1,inactive

# Test system: Plasmodium falciparum
# Assay: Antimicrobial activity against Plasmodium falciparum D6 at 40 uM
# Assay type: functional, organism-based
row,Structure (SMILES),Activity
1,Nc1ccn([C@@H]2O[C@H](CNC(=O)c3ccnc4nc[nH]c34)[C@@H](O)[C@H]2O)c(=O)n1,inactive
2,Nc1ccn([C@@H]2O[C@H](CNC(=O)c3ccncc3)[C@@H](O)[C@H]2O)c(=O)n1,inactive
3,Nc1ccn([C@@H]2O[C@H](CNC(=O)c3cscn3)[C@@H](O)[C@H]2O)c(=O)n1,inactive
4,Nc1ccn([C@@H]2O[C@H](CNC(=O)c3cn4ccsc4n3)[C@@H](O)[C@H]2O)c(=O)n1,inactive
5,Nc1ccn([C@@H]2O[C@H](CNC(=O)Cc3cn4ccsc4n3)[C@@H](O)[C@H]2O)c(=O)n1,inactive

# Molecular target: T1, 2-C-methyl-D-erythritol 2,4-cyclodiphosphate synthase (Burkholderia pseudomallei (strain K96243), UniProt Q63T71)
# T1 sequence (Q63T71 whole entry): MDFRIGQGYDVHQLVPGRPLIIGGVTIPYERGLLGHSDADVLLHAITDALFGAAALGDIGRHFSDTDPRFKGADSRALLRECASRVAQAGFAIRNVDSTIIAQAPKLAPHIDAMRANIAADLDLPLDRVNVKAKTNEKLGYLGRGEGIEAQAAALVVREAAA
# Assay: Binding affinity to Burkolderia pseudomallei IspF by surface plasmon resonance method
row,Structure (SMILES),pKd
1,Oc1ccc(-n2ccnc2)cc1,< 3.30
2,Nc1ccn([C@@H]2O[C@H](CNC(=O)c3ccnc4nc[nH]c34)[C@@H](O)[C@H]2O)c(=O)n1,4.05
3,Nc1ccn([C@@H]2O[C@H](CNC(=O)c3ccncc3)[C@@H](O)[C@H]2O)c(=O)n1,3.74
4,OCc1cn2ccsc2n1,3.87
5,Nc1ccn([C@@H]2O[C@H](CNC(=O)c3cscn3)[C@@H](O)[C@H]2O)c(=O)n1,3.70
6,Nc1ccn([C@@H]2O[C@H](CNC(=O)c3cn4ccsc4n3)[C@@H](O)[C@H]2O)c(=O)n1,4.15
7,Nc1ccn([C@@H]2O[C@H](CNC(=O)Cc3cn4ccsc4n3)[C@@H](O)[C@H]2O)c(=O)n1,3.83

# Test system: Plasmodium falciparum
# Assay: Antimicrobial activity against Plasmodium falciparum C235 at 40 uM
# Assay type: functional, organism-based
row,Structure (SMILES),Activity
1,Nc1ccn([C@@H]2O[C@H](CNC(=O)c3ccnc4nc[nH]c34)[C@@H](O)[C@H]2O)c(=O)n1,inactive
2,Nc1ccn([C@@H]2O[C@H](CNC(=O)c3ccncc3)[C@@H](O)[C@H]2O)c(=O)n1,inactive
3,Nc1ccn([C@@H]2O[C@H](CNC(=O)c3cscn3)[C@@H](O)[C@H]2O)c(=O)n1,inactive
4,Nc1ccn([C@@H]2O[C@H](CNC(=O)c3cn4ccsc4n3)[C@@H](O)[C@H]2O)c(=O)n1,inactive
5,Nc1ccn([C@@H]2O[C@H](CNC(=O)Cc3cn4ccsc4n3)[C@@H](O)[C@H]2O)c(=O)n1,inactive
